Legend:
[1] = test system: picornain 2A protease; test: Inhibitory activity against picornain 2A protease; assay type: biochemical; conditions: at 100 μM
[2] = molecular target: T1, papain (Carica papaya, UniProt P00784); test: Papain inhibition, fluorometric assay with Cbz-Phe-Arg-NHMec; assay type: biochemical; conditions: IC50 at substrate << Km taken as Ki; pH 6.8
T1 construct: purchased Sigma (St. Louis, Mo.)
T1 sequence (P00784 134-345): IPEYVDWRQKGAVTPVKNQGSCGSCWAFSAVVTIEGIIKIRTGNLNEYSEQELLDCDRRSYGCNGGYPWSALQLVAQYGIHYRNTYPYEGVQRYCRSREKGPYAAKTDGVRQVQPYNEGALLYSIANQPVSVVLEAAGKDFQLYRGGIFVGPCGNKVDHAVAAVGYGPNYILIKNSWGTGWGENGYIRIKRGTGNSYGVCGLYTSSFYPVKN
Excerpt: (§1) The enzyme cathepsin B (E.C. 3.4.22.01) was obtained from Calbiochem (San Diego, Calif.); cathepsin L (E.C. 3.4.22.15) from Athens Research and Technology Inc. (Athens,Ga.); and papain (E.C. 3.4.22.02) from Sigma (St. Louis, Mo.).
(§2) Cbz-Phe-Arg-NHMec (--NHMec: 7-(4-methyl)coumarylamide) was obtained from BachemCalifornia, Inc. (Torrance, Calif.). All other reagents were obtained from Sigma.
(§3) The enzymes used in enzyme assays with methylcoumarylamides were activated as described elsewhere (Barret, et al., Methods Enzymol. 80:535-561 (1981); Bromme, et al., Biochem. J, 264: 475-481 (1989). Cathepsin L was assayed in 0.34 M sodium acetate buffer, pH 5.5, containing 0.1% (v/v) Brij 35, 2.5 mM dithiothreitol (DTT) and 5 mM Na2 -EDTA. Cathepsin B was assayed under the same conditions, except that the buffer was adjusted to pH 6. Papain was assayed in 50 mM sodium phosphate buffer, pH 6.8, containing 0.2 M sodium chloride, 2 mM DTT, 1 mM Na2 -EDTA and 0.025% Brij 35 (v/v).
(§4) Initial velocities of enzymatic reactions were measured spectrofluorometrically (λex =370 nm, λem 460 nm) with a Quanta Master QM1 (Photon Technologies International, South Brunswick, N.J.). Stock solutions of the enzymes were diluted into the buffer, equilibrated at room temperature, and preincubated without or with increasing concentrations of inhibitors. The reactions were started by addition of substrate. A total of 4 to 8 inhibitor concentrations were used to determine IC50 values. In all cases the substrate concentrations were much smaller than the Km value, and the IC50 values measured approximated the Ki directly (Cheng, et al., Biochemical Pharmacology, 22:3099-3108 (1973)).

[3] = molecular target: T2, cathepsin L (Homo sapiens, UniProt P07711); test: Cathepsin L inhibition, fluorometric assay with Cbz-Phe-Arg-NHMec; assay type: biochemical; conditions: human enzyme; IC50 at substrate << Km taken as Ki; pH 5.5
T2 construct: purchased Athens Research and Technology Inc. (Athens,Ga.)
Excerpt: as §1, §2, §3, §4

[4] = molecular target: T3, cathepsin B (Homo sapiens, UniProt P07858); test: Cathepsin B inhibition, fluorometric assay with Cbz-Phe-Arg-NHMec; assay type: biochemical; conditions: human enzyme; IC50 at substrate << Km taken as Ki; pH 6
T3 construct: purchased Calbiochem (San Diego, Calif.)
Excerpt: as §1, §2, §3, §4

[5] = test system: gingipain R (RGP); test: Gingipain assay, BAPNA cleavage at 405 nm; assay type: biochemical, human; conditions: 2 mM BAPNA, cell marked (IC50) in the Ki [nM] table
Description: All assays were carried out in a 96 well microtiter plate reader and cleavage of BAPNA (Nα-benzoyl-DL-arginine-p-nitroanilide hydrochloride) was detected at 405 nm.
All assays were performed as follows: 180 μl assay buffer (50 mM Tris, […], at pH 7.6) was mixed with 10 μl gingipain R (RGP). The mixture was incubated for 5 min. at room temperature to reduce and activate RGP. 10 μl of each inhibitor were added at various concentrations. These mixtures were incubated for 10 min. at room temperature to allow the inhibitors to complex with RGP. 50 μl of 10 mM BAPNA substrate was added. A two minute assay was performed with a final volume of 250 μl, and a final BAPNA concentration of 2 mM.
For this reason, two minute assays were performed whereby the Vmax in mOD/min change in absorbance at 405 nm was used as the initial velocity reading. In order to titrate RGP against leupeptin and to determine % activity, these velocity readings were transformed on a percent scale where the 100% control contained no inhibitor. The initial velocity values were also entered into Graphpad Prism regression program along with the various inhibitor concentrations to obtain the IC50 values. All data represents the minimum of duplicates, and at times triplicate sets.

[6] = molecular target: granzyme B (Homo sapiens, UniProt P10144); test: Granzyme B inhibition, photometric, Succ-AAPD-pNA; assay type: biochemical; conditions: 20 μM Succ-AAPD-pNA, 1 mM DTT
Description: (§5) Inhibition constants were measured photometrically for YAMA (caspase 3), Lap3 (caspase 7), FLICE (caspase 8), Mch2 (caspase 6) and granzyme B. The buffer used for all enzymes consisted of 50 mM Hepes, 100 mM sodium chloride, 10% (v/v) sucrose, 0.1% (v/v) CHAPS and 10 mM dithiothreitol (DTT). In the case of granzyme B, only 1 mM DTT was used.
(§6) Enzymes were incubated at 37° C. for 10 minutes in 100 μL well plates and synthetic substrate and inhibitor were added simultaneously. Final substrate concentration was 20 μM in all cases. The synthetic substrate Ac-DEVD-pNA was used for all caspases and Succ-AAPD-pNA was used for granzyme B. The appearance of product was monitored over 10 minutes at 410 nm using a Spectromax 340 and IC50 curves were calculated from the initial slopes at varying inhibitor concentrations and inhibition constants were calculated.

[7] = molecular target: T4, Mch2 (Caspase 6) (Homo sapiens, UniProt P55212); test: Caspase inhibition, photometric, Ac-DEVD-pNA; assay type: biochemical; conditions: 20 μM Ac-DEVD-pNA, 37° C.
T4 sequence (P55212 24-179 limits assumed): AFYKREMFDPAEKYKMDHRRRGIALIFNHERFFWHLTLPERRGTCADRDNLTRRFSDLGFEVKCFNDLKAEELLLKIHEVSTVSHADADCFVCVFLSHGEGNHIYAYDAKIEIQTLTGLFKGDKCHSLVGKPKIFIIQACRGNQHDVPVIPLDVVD
T4 sequence (P55212 194-293 limits assumed): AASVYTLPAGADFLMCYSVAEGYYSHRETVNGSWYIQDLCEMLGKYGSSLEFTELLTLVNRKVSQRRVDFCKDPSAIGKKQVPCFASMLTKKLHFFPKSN
Description: as §5, §6

[8] = molecular target: T5, YAMA (CPP32, Caspase 3) (Homo sapiens, UniProt P42574); test: Caspase inhibition, photometric, Ac-DEVD-pNA; assay type: biochemical; conditions: 20 μM Ac-DEVD-pNA, 37° C.
T5 sequence (P42574 29-175 limits assumed): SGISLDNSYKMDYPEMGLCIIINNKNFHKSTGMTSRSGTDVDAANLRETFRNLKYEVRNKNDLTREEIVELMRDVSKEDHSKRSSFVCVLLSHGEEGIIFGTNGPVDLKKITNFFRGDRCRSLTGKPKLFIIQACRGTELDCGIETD
T5 sequence (P42574 176-277 limits assumed): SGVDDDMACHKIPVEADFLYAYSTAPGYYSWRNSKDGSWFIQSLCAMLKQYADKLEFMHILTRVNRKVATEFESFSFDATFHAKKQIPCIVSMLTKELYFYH
Description: as §5, §6

[9] = molecular target: T6, Lap3 (Mch3, Caspase 7) (Homo sapiens, UniProt P55210); test: Caspase inhibition, photometric, Ac-DEVD-pNA; assay type: biochemical; conditions: 20 μM Ac-DEVD-pNA, 37° C.
T6 sequence (P55210 24-198 limits assumed): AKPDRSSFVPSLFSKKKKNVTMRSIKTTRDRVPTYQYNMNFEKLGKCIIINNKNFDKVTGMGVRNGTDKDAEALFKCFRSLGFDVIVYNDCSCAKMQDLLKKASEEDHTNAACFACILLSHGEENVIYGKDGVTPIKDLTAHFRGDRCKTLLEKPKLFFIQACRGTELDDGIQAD
T6 sequence (P55210 207-303 limits assumed): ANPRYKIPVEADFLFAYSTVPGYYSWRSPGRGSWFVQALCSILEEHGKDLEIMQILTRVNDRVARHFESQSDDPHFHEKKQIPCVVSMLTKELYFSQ
Description: as §5, §6

[10] = molecular target: FLICE (Mch5, Caspase 8) (Homo sapiens, UniProt Q14790); test: Caspase inhibition, photometric, Ac-DEVD-pNA; assay type: biochemical; conditions: 20 μM Ac-DEVD-pNA, 37° C.; read-out: Ki, FLICE (Mch5, Caspase 8)
Description: as §5, §6

[11] = molecular target: T7, ICE (Caspase 1) (Homo sapiens, UniProt P29466); test: THP-1 assay: IL-1β release after LPS stimulation (assay for ICE inhibition); assay type: cell-based
T7 construct: endogenous in cells; host or cells: THP-1
T7 sequence (P29466 120-297 limits assumed): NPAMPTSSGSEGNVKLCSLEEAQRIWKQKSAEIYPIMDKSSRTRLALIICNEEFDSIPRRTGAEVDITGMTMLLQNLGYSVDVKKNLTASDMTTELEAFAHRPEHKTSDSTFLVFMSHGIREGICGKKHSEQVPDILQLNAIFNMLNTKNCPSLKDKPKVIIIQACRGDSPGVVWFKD
T7 sequence (P29466 317-404 limits assumed): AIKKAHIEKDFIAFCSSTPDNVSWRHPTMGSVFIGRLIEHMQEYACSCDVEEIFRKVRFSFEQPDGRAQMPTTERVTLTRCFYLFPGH
Excerpt: To examine the ability of the caspase family inhibitors, CQ-0010 and CQ-0011, to inhibit human IL-1β production, two different assays were employed. In the first, the human monocytic cell line, THP-1, was stimulated with E. coli lipopolysaccharide (LPS serotype 0127-88; Sigma Chemical Co., St. Louis, Mo.) in the presence and absence of the inhibitors. This cell line synthesizes and secretes IL-1β and TNFα as well as other cytokines upon LPS stimulation. The second assay used freshly-isolated human whole blood similarly stimulated with LPS.
Two×10^6 THP-1 cells were added to 24 well plates in 1 ml RPMI supplemented with 1% FCS, glutamine and 5×10^-5 M mercaptoethanol. Two-fold serial dilutions of the inhibitors, CQ-0010, CQ-0011 and the commmercially available Ac-YVAD-CHO (Biomol Research Laboratories Inc., Plymouth Meeting, Pa.), were preincubated with the cells for 15 min at 37° C. LPS was then added to a final concentration of 1 ug/ml and the plates incubated for 4 hr at 37° C. All incubations were carried out in a humidified incubator with 5% CO2 in air.
Supernatants were harvested after 4 hr and assayed by ELISA for the presence of TNFα and IL-1β using commercially available kits (PerSeptive Biosystems, Framingham, Mass. and R&D Systems, Minneapolis, Minn., respectively).

T2 sequence (P07711 114-333): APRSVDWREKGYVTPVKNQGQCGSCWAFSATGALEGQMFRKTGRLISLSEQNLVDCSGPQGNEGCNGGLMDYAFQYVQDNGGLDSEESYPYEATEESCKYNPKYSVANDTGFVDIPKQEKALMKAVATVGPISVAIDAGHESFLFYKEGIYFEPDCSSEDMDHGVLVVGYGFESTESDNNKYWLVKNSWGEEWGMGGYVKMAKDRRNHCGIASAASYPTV
granzyme B, sequence (P10144 21-247, species assumed): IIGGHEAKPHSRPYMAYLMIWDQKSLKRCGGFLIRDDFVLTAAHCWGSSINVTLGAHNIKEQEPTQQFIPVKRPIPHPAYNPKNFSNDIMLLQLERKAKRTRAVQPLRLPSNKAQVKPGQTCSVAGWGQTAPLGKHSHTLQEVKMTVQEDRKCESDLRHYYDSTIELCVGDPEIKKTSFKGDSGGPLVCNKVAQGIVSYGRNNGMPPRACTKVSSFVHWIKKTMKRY
FLICE (Mch5, Caspase 8), sequence (Q14790 217-374 limits assumed, species assumed): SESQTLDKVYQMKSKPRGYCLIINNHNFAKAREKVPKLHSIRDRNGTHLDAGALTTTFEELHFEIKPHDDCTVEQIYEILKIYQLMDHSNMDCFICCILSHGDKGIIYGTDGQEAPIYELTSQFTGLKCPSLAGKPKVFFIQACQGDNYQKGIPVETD
FLICE (Mch5, Caspase 8), sequence (Q14790 385-479 limits assumed, species assumed): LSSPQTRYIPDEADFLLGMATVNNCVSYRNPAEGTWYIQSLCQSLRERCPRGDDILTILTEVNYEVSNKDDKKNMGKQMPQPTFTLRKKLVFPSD

Molecule | inhibition of picornain 2A protease [1] | Ki [2] | Ki [3] | Ki [4] | also measured
CC(C)[C@H](NC(=O)CCC(=O)OC(C)(C)C)C(=O)N1CCC[C@H]1C(=O)NC(Cc1ccccc1)C(=O)c1noc(Cc2cccc(C(F)(F)F)c2)n1 (stereo partly drawn) [CE-2060, (t-butoxysuccinyl)-L-valyl-N-[1-[3-[5-(3-trifluoromethylbenzyl)-1,2,4-oxadiazolyl]carbonyl]-2-benzylidone]-L-prolinamide] | 100% |  |  |  | 
Cc1cccc(Cc2nnc(C(=O)C(NC(=O)[C@@H]3CCCN3C(=O)[C@@H](NC(=O)OCc3ccccc3)C(C)C)C(C)C)o2)c1 (stereo partly drawn) [CE-2072, (Benzyloxycarbonyl)-L-valyl-N-[1-(2-[5-(3-methylbenzyl)-1,3,4-oxadiazolyl]carbonyl)-2-(S)-methylpropyl]-L-prolinamide] | 100% |  |  |  | 
Cc1cccc(Cc2nnc(C(=O)[C@@H](NC(=O)[C@H](Cc3ccccc3)NC(=O)[C@@H](CC(=O)O)CC(C)C)C(C)C)o2)c1 [CM-0019B, [[2-[5-(3-methylbenzyl)-1,3,4-oxadiazolyl]carbonyl]-2-(S)-methylpropyl]-L-phenylalanamide-(3R)-(isobutyl)succinic acid] |  | 85 nM | ~100 nM | 3000 nM | 
CC(=O)N[C@@H](CC(C)C)C(=O)N[C@@H](CC(C)C)C(=O)NC(CCCN=C(N)N)C(=O)c1nnc(-c2ccccc2)o1 (some centres unmarked) [CQ-0002] |  | 1200 nM | 6 ± 0.98 nM | 324 ± 46 nM | IC50 [5]: 28 nM
CC(=O)N[C@@H](CC(C)C)C(=O)N[C@@H](CC(C)C)C(=O)NC(C)C(=O)c1noc(C)n1 (stereo partly drawn) [CQ-0004, Acetyl-L-leucyl-N-[1-[3-[5-methyl]-1,2,4-oxadiazolyl]carbonyl]-ethyl-L-leucyl amide] |  | 25600 ± 5340 nM | 61 ± 14 nM | 27200 ± 1900 nM | 
CC(=O)N[C@@H](CC(C)C)C(=O)N[C@@H](CC(C)C)C(=O)NC(CCCN=C(N)N)C(=O)c1noc(C)n1 (stereo partly drawn) [CQ-0008, Acetyl-L-leucyl-N-[1-[3-[5-methyl-1,2,4-oxadiazolyl]carbonyl]-4-(guanidino)-butyl]-L-leucyl amide] |  | 8590 ± 1860 nM | 7.13 ± 0.32 nM | 1240 ± 182 nM | 
CC(=O)N[C@@H](CC(=O)O)C(=O)N[C@H](C(=O)N[C@@H](CCC(=O)O)C(=O)NC(CC(=O)O)C(=O)c1nnc(-c2ccccc2)o1)C(C)C (stereo partly drawn) [CQ-0011, Acetyl-L-Aspartyl-Valyl-N-[1-[2-[(5-phenyl)-1,3,4-oxadiazolyl]carbonyl]-2-(carboxy)-ethyl]-L-glutamyl amide] |  |  |  |  | Ki, Granzyme [6]: Not Active; Ki [7]: 6700 nM; Ki [8]: ≤ 100 nM; Ki [9]: ≤ 30 nM; Ki [10]: ≤ 30 nM; IC50 ([11]; LPS 1 ug/ml, 4 hr, ELISA, read-out: IC50 of reduction of IL1β release from THP1 cell line): 3000 nM; potency in inhibiting IL1β production relative to CQ-0010 (fold less) ([11]; THP-1 cells (FIG. 1; Table 4)): approximately 10 fold
Carboxysuccinyl-L-valyl-N-[1-[3-[5-(3-trifluoromethylbenzyl)- 1,2,4-oxadiazolyl]carbonyl]-2-benzylidone]-L-prolinamide [CE-2061] | 100% |  |  |  | 

From US6004933A, “Cysteine protease inhibitors” (Cortech Inc., priority 1998, dated 1999)
